Laboratory results: patent US20240238327A1 (priority 2021, published 2024)

Key:
Raw 264.7 cells [1] = assay: cytotoxicity (CCK-8 cell viability); type: cell-based; conditions: monomers, 20 mg/mL
Protocol: Raw 264.7 cells were maintained in a DMEM containing 10% FBS and 1% penicillin/streptomycin. 5×10^4 cells were dispensed in each well of a 96-well plate, and after 24 hours, the cells were treated with cyclodextrin at a concentration of 20 mg/mL. After culturing the cells at 37° C. in 5% CO2, a CCK-8 agent was added, 10 μL at a time.

[2] = tested on: outer hair cells in the cochlea; conditions: 5 g/kg brain weight intraventricular; one week after injection
Protocol: (§1) To assess systemic toxicity, cyclodextrin dissolved in PBS was subcutaneously injected in an amount of 10 g/kg body weight to wild-type C57/BL6 mice. […] The body weight and behavioral characteristics of the mice were observed every day for a week. The behavioral characteristics of the mice were measured according to the criteria presented in Endpoints for Mouse Abdominal Tumor Models: Refinement of Current Criteria. In order to confirm toxicity to major organs, the mice were sacrificed 7 days later, and H&E staining was performed. In order to assess ototoxicity, the mice were sacrificed 7 days later, and the outer hair cells in the cochlea were quantified through microscopic observation. […] The brain weight of the mice was calculated to be about 0.4 g according to the age, and as a result, 2 mg of cyclodextrin was dissolved in 10 μL of PBS and injected. After 7 days, the outer hair cells in the cochlea were quantified through microscopic observation.
(§2) Also, the histological analysis of the major organs of the mice after one week is shown in FIG. 24, and ototoxicity of the C57BL/6 mice was evaluated one week after subcutaneously injecting 10 g/kg of cyclodextrin and intraventricularly injecting 5 g/kg brain weight of cyclodextrin. […]

[3] = cholesterol crystal dissolution; type: physicochemical; conditions: monomers; 20 mg/mL, 37° C., 2 hours; NBD-cholesterol fluorescence
Protocol: First, in order to form cholesterol crystals, a solution including 2 mg/ml of cholesterol and 0.2 mg/ml of NBD-cholesterol in ethanol was prepared, and then distilled water (30% v/v) was added to the solution to induce crystallization. The solution was completely dried under vacuum, resuspended in PBS, and sonicated for 30 seconds. 20 μL of 5 mM cholesterol was mixed with 300 μL of 20 mg/mL cyclodextrin and reacted at 37° C. for 2 hours. After centrifuging the mixture at 14,000 g for 30 minutes to remove undissolved cholesterol crystals, the supernatant was collected and the fluorescence of dissolved NBD-cholesterol was measured at 480 nm/520 nm, and the cholesterol crystal dissolution levels depending on the molecular weights of hydroxypropyl-alpha-, -beta-, -gamma-cyclodextrin monomers and polymers were confirmed.

Raw 264.7 cells [4] = assay: intracellular cholesterol excretion in macrophages that had taken up fluorescent cholesterol; type: cell-based; conditions: 5 mg/mL, 48 hours; PBS control set to 100%
Protocol: Raw 264.7 cells were dispensed at 5×10^4 cells per well of a 96-well plate, and after 24 hours, the cells were treated with cholesterol crystals at a concentration of 50 μM. […] The cells were cultured at 37° C. in 5% CO2 for 48 hours, and intracellular cholesterol fluorescence was analyzed using a fluorescence microscope. In addition, to investigate the effect of cyclodextrin on intracellular cholesterol metabolism, the amount of ATP-binding cassette transporter (ABCA1) involved in cholesterol excretion was quantified using a cell flow rate analyzer, and cholesteryl ester, which is a storage form of cholesterol, was quantified.

Raw 264.7 cells [5] = assay: plasma membrane cholesterol extraction from fixed cells; type: cell-based; conditions: for plasma membrane cholesterol extraction: monomers, 20 mg/mL in PBS, 37° C., 1 hour, fixed cells
Protocol: Raw 264.7 cells were maintained in a Dulbecco's modified Eagle's medium (DMEM) containing 10% fetal bovine serum (FBS) and 1% penicillin/streptomycin. In order to suppress endocytosis of cyclodextrin and induce only plasma membrane cholesterol extraction, 1×10^5 cells were fixed at room temperature for 20 minutes using formaldehyde, and then cyclodextrin was dissolved in PBS in a concentration of 20 mg/mL and treated to the cells at 37° C. for 1 hour. The treated PBS was collected, centrifuged at a rate of 14,000 g for 30 minutes to remove cell debris and microvesicles, and then the cholesterol concentration in the supernatant was quantified using a Cholesterol Quantification Kit (Sigma Aldrich). The plasma membrane cholesterol extraction of gamma-cyclodextrins and polymers thereof was compared with alpha and beta-cyclodextrins and polymers thereof. […] The plasma membrane cholesterol extraction induced by gamma-cyclodextrins and polymers thereof was compared with alpha- and beta-cyclodextrins and polymers thereof, and the results are shown in FIG. 5.

[6] = tested on: whole blood from wild-type C57/BL6 mice; assay: hemolytic activity; type: cell-based; conditions: monomers; 50 mg/ml in PBS, 37° C., 1 hour
Protocol: For hemolytic activity analysis, 30 μL of whole blood from wild-type C57/BL6 mice was mixed with 300 μL of a PBS solution containing 50 mg/ml of cyclodextrin and reacted at 37° C. for 1 hour. After centrifuging the mixture at 3,000 g for 5 minutes, the absorbance at 540 nm was measured using the supernatant.

[7] = systemic toxicity (body weight, behavioral score, organ histology); conditions: 10 g/kg subcutaneous; one day after administration
Protocol: as §1, §2

Row | Compound | cell viability (Raw 264.7 cells [1]) [%] | outer hair cell survival [2] [%] | cholesterol crystal dissolution [3] [%] | amount of intracellular cholesterol (Raw 264.7 cells [4]) [%] | level of plasma membrane cholesterol extraction (in words) (Raw 264.7 cells [5]; 20 mg/mL, compared with alpha- and beta-cyclodextrin monomers and polymers, or with the monomers) | plasma membrane cholesterol extraction (Raw 264.7 cells [5]) [%] | hemolytic activity [6] [%] | lowest behavioral score, average [7] [points]
1 | hydroxypropyl-gamma-cyclodextrin | 93.9 | 69.7 | 12.1 | 75 | significantly low levels of cholesterol extraction | 5 |  | 
2 | CC(O)COC[C@H]1O[C@@H]2O[C@H]3[C@H](O)[C@@H](O)[C@@H](O[C@H]4[C@H](O)[C@@H](O)[C@@H](O[C@H]5[C@H](O)[C@@H](O)[C@@H](O[C@H]6[C@H](O)[C@@H](O)[C@@H](O[C@H]7[C@H](O)[C@@H](O)[C@@H](O[C@H]8[C@H](O)[C@@H](O)[C@@H](O[C@H]1[C@H](O)[C@H]2O)O[C@@H]8COCC(C)O)O[C@@H]7COCC(C)O)O[C@@H]6COCC(C)O)O[C@@H]5COCC(C)O)O[C@@H]4COCC(C)O)O[C@@H]3COCC(C)O (stereo partly drawn) [hydroxypropyl-beta-cyclodextrin] | 9.6 | 27.5 | 32.3 | 80.5 |  | 45 | 97.1 | 
3 | hydroxypropyl-alpha-cyclodextrin | 14.2 |  | 21.9 |  |  | 42.8 |  | 
4 | cyclodextrin |  |  |  |  |  |  |  | 6
